{"source": "patent US20170079966A1", "about": "“INHIBITION OF TUMOR CELL INTERACTIONS WITH THE MICROENVIRONMENT RESULTING IN A REDUCTION IN TUMOR GROWTH AND DISEASE PROGRESSION” (Deciphera Pharmaceuticals, LLC, priority 2014, published 2017)", "target": "TIE2 (Homo sapiens, UniProt Q02763)", "sequence (Q02763 23-1124)": "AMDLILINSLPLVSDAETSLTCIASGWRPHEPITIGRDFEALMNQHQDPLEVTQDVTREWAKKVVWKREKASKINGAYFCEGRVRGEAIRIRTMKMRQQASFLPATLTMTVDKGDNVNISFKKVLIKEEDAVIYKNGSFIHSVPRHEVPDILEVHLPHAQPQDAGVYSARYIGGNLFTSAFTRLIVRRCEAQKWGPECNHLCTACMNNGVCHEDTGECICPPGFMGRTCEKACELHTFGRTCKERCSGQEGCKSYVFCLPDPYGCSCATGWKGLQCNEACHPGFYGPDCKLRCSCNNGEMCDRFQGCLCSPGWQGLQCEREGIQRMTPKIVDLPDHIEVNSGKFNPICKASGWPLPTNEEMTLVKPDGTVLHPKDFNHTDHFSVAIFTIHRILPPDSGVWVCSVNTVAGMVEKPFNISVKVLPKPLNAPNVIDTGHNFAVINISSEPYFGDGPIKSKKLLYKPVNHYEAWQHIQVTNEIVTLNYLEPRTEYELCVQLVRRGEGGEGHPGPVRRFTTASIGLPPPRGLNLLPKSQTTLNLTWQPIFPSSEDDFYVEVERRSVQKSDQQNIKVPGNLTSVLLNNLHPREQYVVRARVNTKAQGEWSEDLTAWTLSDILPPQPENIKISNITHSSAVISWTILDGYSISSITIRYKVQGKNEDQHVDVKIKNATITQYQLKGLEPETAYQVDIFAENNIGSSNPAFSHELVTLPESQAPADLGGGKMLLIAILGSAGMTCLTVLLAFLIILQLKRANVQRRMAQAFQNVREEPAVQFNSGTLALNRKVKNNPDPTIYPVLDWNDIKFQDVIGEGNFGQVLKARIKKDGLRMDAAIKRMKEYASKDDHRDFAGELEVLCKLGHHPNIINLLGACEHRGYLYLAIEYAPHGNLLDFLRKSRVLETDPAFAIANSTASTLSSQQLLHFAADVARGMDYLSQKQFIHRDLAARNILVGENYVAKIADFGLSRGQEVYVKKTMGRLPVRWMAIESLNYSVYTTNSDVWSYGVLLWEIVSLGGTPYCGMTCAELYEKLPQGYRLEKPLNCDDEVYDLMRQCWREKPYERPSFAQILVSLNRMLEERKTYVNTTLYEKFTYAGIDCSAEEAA", "assay": "HUVEC Phospho-TIE2 Western Blot Assay", "assay_type": "cell-based", "set-up": "host or cells: HUVEC", "details": "4 hours compound; 800 ng/mL ANG1 complex 15 minutes; read-out: IC50, ANG1-stimulated phospho-TIE2 in HUVECs", "description": "HUVEC cells (2.5×10^5 cells/well) were added to a 24-well tissue-culture treated plate in 1 mL of EGM-2 culture medium (Lonza, Walkersville, Md.). Cells were then incubated overnight at 37 degrees Celsius, 5% CO2, and 95% humidity. Media was then aspirated and 1 mL EBM-2 basal medium (Lonza, Walkersville, Md.) supplemented with 2% FBS (Invitrogen, Carlsbad, Calif.) was added. […] The plates were then incubated for 4 hours at 37 degrees Celsius, 5% CO2, and 95% humidity. During the incubation, histidine-tagged angiopoietin 1 (ANG1) growth factor (R&D Systems, Minneapolis, Minn.) was added to an anti-polyhistidine antibody (R&D Systems, Minneapolis, Minn.) for 30 minutes at room temperature to generate multimers of ANG1. […] The media was aspirated and the cells were washed with PBS. The cells were lysed using MPER lysis buffer (Pierce, Rockford, Ill.) containing Halt Phosphatase and Protease Inhibitors (Pierce, Rockford, Ill.) and Phosphatase inhibitor cocktail 2 (Sigma, St. Louis, Mo.) at 4° C. for 10 minutes with shaking. […] Fluorescence was detected using a Storm 840 phosphorimager (GE Healthcare, Piscataway, N.J.) in fluorescence mode. The 160 kDa phospho-TIE2 band was quantified using ImageQuant software (GE Healthcare, Piscataway, N.J.). Data was analyzed using Prism software (GraphPad Software, San Diego, Calif.) to calculate the IC50 value."}
{"smiles": "O=C(Nc1cc(Oc2cc(F)c(NC(=O)C3(C(=O)Nc4ccc(F)cc4)CC3)cc2F)ccn1)C1CC1", "note": "[Compound 1, N-(4-(2-(cyclopropanecarboxamido)pyridin-4-yloxy)-2,5-difluorophenyl)-N′-(4-fluorophenyl)cyclopropane-1,1-dicarboxamide]", "values": [{"measurement": "IC50", "result": 1, "unit": "nM"}]}
